Data as given in patent US20190091198A1, “C[…] CANNABIS-BASED COMPOSITIONS AND METHODS FOR THE TREATMENT OF IN[…] THE GASTROINTESTINAL TRACT” (TO PHARMACEUTICALS LLC, priority 2016, published 2019).

Format: in vivo, human
Settings: for maximal mean blood (serum) level: single sublingual dose of Avidekel oil, 4 drops (6.4 mg Δ9-THC and 26 mg CBD), N=7, LC-MS/MS
Protocol: Blood samples were withdrawn at time 0 and after administration of Avidekel oil extract, a sublingual dose 4 drops. Blood samples were withdrawn in intervals of 15, 30, 45, 60 and 90 min., and 2, 3, 4, 5, and 6 h., and stored at −70° C. until analysis at NMS Labs using LC-MS/MS.
FIG. 2A-2D show mean cannabinoid blood levels after administration of a single dose of Avidekel oil (6.4 mg Δ^9-THC and 26 mg CBD).

[1] = single dose of Avidekel oil (6.4 mg Δ9-THC and 26 mg CBD), N=7

CCCCCc1cc(O)c2c(c1)OC(C)(C)[C@@H]1CCC(CO)=C[C@@H]21 [11-Hydroxy Δ^9-THC]
mean blood level after the drop from the maximum (single dose of Avidekel oil (6.4 mg Δ9-THC and 26 mg CBD), N=7, within 6 h sampling period): 1.9 ± 1.1 ng/mL
maximal mean blood (serum) level: 4.5 ± 4.2 ng/mL

CCCCCc1cc(O)c2c(c1)OC(C)(C)[C@@H]1CCC(C(=O)O)=C[C@@H]21 [Δ^9 Carboxy THC]
mean blood level after 90 min [1]: 34.5 ± 47.7 ng/mL
mean blood level reached during the 6 h period (still rising) [1]: 75.5 ± 77.0 ng/mL

C=C(C)[C@@H]1CCC(C)=C[C@H]1c1c(O)cc(CCCCC)cc1O [CBD, 2-[(1R,6R)-6-isopropenyl-3-1-yl]-5-pentylbenzene-1,3-diol, reference compound]
maximal mean blood (serum) level: 6.2 ± 5.9 ng/mL

CCCCCc1cc(O)c2c(c1)OC(C)(C)[C@@H]1CCC(C)=C[C@@H]21 [Δ^9-THC, (−)-(6aR,10aR)-6,6,9-Trimethyl-3-methylcyclohex-2-en-pentyl-6a,7,8,10α-tetrahydro-6H-benzo[c]chromen-1-ol, reference compound]
blood levels 6 h after administration [1]: typical to those after 24 hours of Cannabis washout
maximal mean blood (serum) level: 2.3 ± 2.2 ng/mL
